Reference: ChEMBL document CHEMBL1148852, “Glucosamine sulfate promotes osteoblastic differentiation of MG-63 cells via anti-inflammatory effect” (2007)
Calls of active or inactive are those of the source. The calls are words filed in the database; no cut-off is given here.

Tests used:
MG-63 [1] = experiment: Cytotoxicity against human MG63 cells up to 1000 ug/ml after 48 hrs by MTT assay; format: functional, cell-based
MG-63 [2] = experiment: Increase in alkaline phosphatase activity in human MG63 cells at 5 ug/mL after 24 hrs; format: functional, cell-based
MG-63 [3] = experiment: Increase in alkaline phosphatase activity in human MG63 cells at 1000 ug/mL after 24 hrs; format: functional, cell-based
MG-63 [4] = experiment: Effect on osteocalcin secretion in human MG63 cells after 4 days; format: functional, cell-based
MG-63 [5] = experiment: Increase of mineralization in human MG63 cells after 7 days; format: functional, cell-based
MG-63 [6] = experiment: Increase of collagen synthesis in human MG63 cells after 7 days; format: functional, cell-based
RAW [7] = experiment: Inhibition of lipopolysaccharide stimulated TNFalpha synthesis in mouse RAW 264.7 cells; format: functional, cell-based
RAW [8] = experiment: Reduction of lipopolysaccharide stimulated IL1-beta synthesis in mouse RAW 264.7 cells; format: functional, cell-based
RAW [9] = experiment: Reduction of lipopolysaccharide stimulated PGE2 synthesis in mouse RAW 264.7 cells at 10 ug/mL; format: functional, cell-based
MG-63 [10] = experiment: Increase of collagen synthesis in human MG63 cells at 10 ug/mL relative to glucosamine; format: functional
MG-63 [11] = experiment: Increase in alkaline phosphatase activity in human MG63 cells after 24 hrs; format: functional, cell-based
MG-63 [12] = experiment: Effect on alkaline phosphatase activity in human MG63 cells at 100 ug/mL after 24 hrs; format: functional, cell-based

| Structure (SMILES) | Activity (MG-63 [1]) | Activity (MG-63 [2]) | Activity (MG-63 [3]) | Activity (MG-63 [4]) | Activity (MG-63 [5]) | Activity (MG-63 [6]) | Activity (RAW [7]) | Activity (RAW [8]) | Activity (RAW [9]) | Fold change (MG-63 [10]) | Activity (MG-63 [11]) | Activity (MG-63 [12]) |
| --- | --- | --- | --- | --- | --- | --- | --- | --- | --- | --- | --- | --- |
| N[C@@H]1[C@@H](O)[C@H](O)[C@@H](COS(=O)(=O)O)O[C@H]1O | Not toxic | Active | inactive | Dose-dependent effect | Active | Dose-dependent effect | Active | Active | Active | 3 | Dose-dependent effect | – |
| N[C@@H]1[C@@H](O)[C@H](O)[C@@H](CO)O[C@H]1O | – | – | – | Dose-dependent effect | – | – | Active | – | – | – | – | inactive |
